Experimental data taken from US20130065760A1, “Substituted Pyridines Having Herbicidal Action” (BASF SE, priority 2010, published 2013).

System: AMARE
Test: greenhouse experiment, post-emergence treatment, herbicidal activity
Format: in vivo, Amaranthus retroflexus
Details: post-emergence method, application rate 0.5 kg/ha, scale from 0 to 100
From the text: The seeds of the test plants were sown separately for each species. For the post-emergence treatment, the test plants were first grown to a height of 3 to 15 cm, depending on the plant habit, and only then treated with the active ingredients which had been suspended or emulsified in water. For this purpose, the test plants were either sown directly and grown in the same containers, or they were first grown separately as seedlings and transplanted into the test containers a few days prior to treatment. Depending on the species, the plants were kept at 10-25° C. or 20-35° C. The test period extended over 2 to 4 weeks. During this time, the plants were tended, and their response to the individual treatments was evaluated. Evaluation was carried out using a scale from 0 to 100. 100 means no emergence of the plants, or complete destruction of at least the aerial moieties, and 0 means no damage, or normal course of growth. A good herbicidal activity is given at values of at least 70 and a very good herbicidal activity is given at values of at least 85. The plants used in the greenhouse experiments belonged to the following species: [table]

## 3-[5-chloro-3-morpholino-2-(trifluoromethyl)phenyl]-1-(2,2-difluoroethyl)-4-hydroxy-1,5-naphthyridin-2-one [I-3]
  herbicidal activity against AMARE: very good (a very good herbicidal activity is given at values of at least 85)
